The text below walks through data of patent publication US9067926B2, “Fluoromethyl-5,6-dihydro-4H-[1,3]OXAZINES” (F. Hoffmann-La Roche AG, priority 2012, dated 2015).

For one data set, the target named is T1, CYP2C9 (Homo sapiens, UniProt P11712).
T1 construct: 0.2 mg/ml pooled human liver microsomes; from tissue; host or cells: pooled human liver microsomes
Briefly: CYP inhibition assay, CYP2C9. The data set is classed as in vitro ADME. To be noted: pooled human liver microsomes, diclofenac substrate; read-out: CYP IC50 2C9. How it is done: (§1) Inhibition of cytochromes P450 (CYPs) 2C9, 2D6 and 3A4 was assessed using human liver microsomes and CYP-selective substrate metabolism reactions. […] Quenched incubates were stored at −20° C. for at least 1 hour before centrifugation (20,000×g, 20 minutes). Supernatants were removed and diluted 1:1 with water prior to analysis using a RapidFire sample injector system and API4000 mass spectrometer. Peak areas for substrate, metabolite and stable-labelled metabolite standard were determined using MS/MS. The peak area ratios between the metabolite generated by the enzymatic reaction and the internal standard were used in subsequent calculations. The percentage of (DMSO) control activity was calculated for each incubate and IC50 values estimated by non-linear regression. Sulfaphenazole, quinidine or ketoconazole were tested in each CYP2C9, CYP2D6 or CYP3A4 inhibition experiment, respectively, to ensure assay sensitivity and reproducibility.

Another data set addresses T2, P-gp (human MDR1) (Homo sapiens, UniProt P08183).
T2 construct: host or cells: LLC-PK1 (porcine kidney epithelial cells)
Briefly: P-gp (P-Glycoprotein) bidirectional transcellular transport assay, LLC-PK1 and L-MDR1 cells. The data set is classed as in vitro ADME. The settings on record: LLC-PK1 cells expressing human MDR1, PappBA/PappAB. How it is done:
P-gp (P-Glycoprotein) Assay
Cell Lines and Vesicles Used for Transport Experiments
The MDR1 (human multidrug resistance protein 1) transfected cell lines were obtained from Dr. A. Schinkel, The Netherlands Cancer Institute (Amsterdam, The Netherlands). All cell lines were cultured on permeable inserts (Costar, 0.33 cm^2 area, pore size 3.0 μm, low density) at 4.5·10^5 cells/cm^2. Transport measurements were performed at day 4 after seeding. Tightness of the cell monolayer was controlled via the permeability of the extracellular marker lucifer yellow (10 μM).
In Vitro Transport Experiments
Bidirectional transcellular transport using LLC-PK1 and L-MDR1 LLC-PK1 cells exogenously expressing the human MDR1)
The method used for transport experiments were performed on a TECAN automated liquid handling system. Briefly, medium was removed from all compartments and the medium of receiver side was replaced with culture medium. The trans-cellular transport measurements were initiated by adding the substrate together with extracellular marker lucifer yellow to the donor side. Inhibitors were added to both sides (1 μM elacridar). […] The plates were incubated at 37° C. and 5% CO2 in a Liconic incubator. Samples were taken from the donor and the opposite (acceptor) side after 2 hours incubation. Concentrations of substrate in both compartments were determined by scintillation counting (digoxin) or by LC-MS/MS. […] In each experiment 3 different inserts were used for each condition and a mean was calculated.
Bidirectional transcellular transport using LLC-PK1 and L-MDR1 cells
For the transcellular transport, the following equation was used for data evaluation: […]
Where Papp, A, C0, and dQ/dt represent the apparent permeability, the filter surface area, the initial concentration, and the amount transported per time period, respectively.
Transport efflux ratios (ER) were calculated as follows: […]
Where PappBA is the permeability value in the basolateral-to-apical direction, and PappAB the permeability value in the apical-to-basolateral direction. Papp were not corrected for flux of the extracellular marker lucifer yellow, which was used to assess the quality of the cell mono layers.

Data set [1] is described as follows: Detection of glutathione conjugates (GSH). Details: key: NF = in vitro no adduct formation relative to control. Type of data set: in vitro ADME, human. To be noted: in vitro, relative to control. The text has this:
Detection of Glutathione Conjugates (GSH) The assay conditions for the detection of glutathione conjugates follow the procedure described by C. M. Dieckhaus et al. in Chem. Res. Toxicol. 2005, 18, 630-63.

Another data set addresses T3, BACE1 (Homo sapiens, UniProt P56817).
T3 construct: endogenous in cells; host or cells: HEK293 APP cells
Briefly: Cellular Aβ-lowering assay (Abeta 40 AlphaLISA). The data set is classed as cell-based. To be noted: HEK293 APP cells, 18-20 hrs incubation, Aβ 40 in culture supernatant; read-out: BACE1 cell act. Aβ40 IC50.

For data set [2], the target named is T4, cathepsin D (from human liver) (Homo sapiens, UniProt P07339).
T4 construct: cathepsin D (from human liver, Calbiochem) diluted in assay buffer; purchased Calbiochem; host or cells: human liver
T4 sequence (P07339 65-412): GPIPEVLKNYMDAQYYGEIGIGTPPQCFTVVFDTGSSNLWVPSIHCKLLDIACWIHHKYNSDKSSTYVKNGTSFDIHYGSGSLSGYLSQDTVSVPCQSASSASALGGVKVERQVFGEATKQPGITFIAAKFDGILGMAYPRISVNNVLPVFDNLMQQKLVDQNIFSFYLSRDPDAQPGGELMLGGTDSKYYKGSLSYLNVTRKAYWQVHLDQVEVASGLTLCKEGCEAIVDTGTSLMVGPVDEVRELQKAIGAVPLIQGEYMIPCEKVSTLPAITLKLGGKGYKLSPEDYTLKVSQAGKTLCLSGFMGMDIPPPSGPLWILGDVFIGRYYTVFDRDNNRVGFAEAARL
Briefly: Cathepsin D fluorescent substrate kinetic assay. Type of data set: biochemical. To be noted: pH 5.5. From the text:
Cathepsin D and Cathepsin E Fluorescent Substrate Kinetic Assays
The MR121 fluorescence assays described below are based on the fact that MR121 forms a non-fluorescent ground state complex with tryptophan. In solution this formation occurs at millimolar concentrations of tryptophan. The mechanism can be used to design a generic biochemical assay for proteases. […] In absence of protease activity, the substrates remain intact and the MR121 fluorescence is reduced by the high local Trp-concentration. If the substrates are cleaved by the enzymes the MR121 fluorescence is recovered.
The fluorescent substrate cathepsin D and cathepsin E kinetic assays were performed at room temperature in 384-well microtiter plates (black with clear flat bottom, non binding surface plates from Corning) in a final volume of 51 μl. The test compounds were serially diluted in DMSO (15 concentrations, 1/3 dilution steps) and 1 μl of diluted compounds were mixed for 10 min with 40 μl of cathepsin D (from human liver, Calbiochem) diluted in assay buffer (100 mM sodium acetate, 0.05% BSA, pH 5.5; final concentration: 200 nM) or with 40 μl of recombinant human cathepsin E (R&D Systems) diluted in assay buffer (100 mM sodium acetate, 0.05% BSA, pH 4.5; final concentration: 0.01 nM). […] The slope in the linear range of the kinetic was calculated and the IC50 of the test compounds were determined using a four parameter equation for curve fitting.

A further data set concerns the target T5, CYP3A4 (Homo sapiens, UniProt P08684).
T5 construct: 0.2 mg/ml pooled human liver microsomes; from tissue; host or cells: pooled human liver microsomes
Briefly: CYP inhibition assay, CYP3A4. Type of data set: in vitro ADME. The settings on record: pooled human liver microsomes, midazolam substrate; read-out: CYP IC50 3A4. How it is done:
as §1

In the next data set the target is hERG (Homo sapiens, UniProt Q12809). The data set is described as follows: hERG current measurement (automated patch clamp). Type of data set: cell-based. How it is done: The hERG current measurement was performed at an automated patch clamp system following the procedure described in R. E. Martin et al. in Bio org.
Sequence of hERG (Q12809 whole entry): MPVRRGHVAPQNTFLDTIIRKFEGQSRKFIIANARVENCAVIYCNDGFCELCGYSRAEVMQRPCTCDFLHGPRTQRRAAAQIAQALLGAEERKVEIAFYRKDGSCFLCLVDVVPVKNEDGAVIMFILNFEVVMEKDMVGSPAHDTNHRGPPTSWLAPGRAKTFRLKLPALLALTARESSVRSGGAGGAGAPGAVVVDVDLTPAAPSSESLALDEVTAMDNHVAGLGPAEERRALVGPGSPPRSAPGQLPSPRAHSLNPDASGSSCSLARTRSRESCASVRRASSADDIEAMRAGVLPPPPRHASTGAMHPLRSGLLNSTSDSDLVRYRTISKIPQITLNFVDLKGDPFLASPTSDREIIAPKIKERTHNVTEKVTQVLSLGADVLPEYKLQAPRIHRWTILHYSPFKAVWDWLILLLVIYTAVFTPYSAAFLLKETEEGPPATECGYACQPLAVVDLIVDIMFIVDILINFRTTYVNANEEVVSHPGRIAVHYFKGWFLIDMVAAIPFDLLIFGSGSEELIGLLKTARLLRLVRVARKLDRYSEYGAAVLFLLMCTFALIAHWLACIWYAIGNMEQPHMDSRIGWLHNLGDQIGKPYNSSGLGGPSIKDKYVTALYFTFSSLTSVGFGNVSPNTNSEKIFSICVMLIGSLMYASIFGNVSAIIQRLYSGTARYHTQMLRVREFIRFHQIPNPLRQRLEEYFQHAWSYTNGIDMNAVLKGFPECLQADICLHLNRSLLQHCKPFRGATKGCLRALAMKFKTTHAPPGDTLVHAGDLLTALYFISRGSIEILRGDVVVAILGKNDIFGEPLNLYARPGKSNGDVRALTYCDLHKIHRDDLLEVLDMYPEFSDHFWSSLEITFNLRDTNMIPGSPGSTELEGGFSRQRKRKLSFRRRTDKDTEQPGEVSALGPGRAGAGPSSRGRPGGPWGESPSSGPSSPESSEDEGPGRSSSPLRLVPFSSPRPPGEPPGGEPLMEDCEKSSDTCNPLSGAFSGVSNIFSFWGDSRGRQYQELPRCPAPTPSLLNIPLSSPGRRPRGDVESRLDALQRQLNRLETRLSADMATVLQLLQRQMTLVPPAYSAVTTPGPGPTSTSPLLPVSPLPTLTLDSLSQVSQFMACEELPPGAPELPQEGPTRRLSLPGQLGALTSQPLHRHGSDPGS
In the next data set the target is T6, CYP2D6 (Homo sapiens, UniProt P10635).
T6 construct: 0.2 mg/ml pooled human liver microsomes; from tissue; host or cells: pooled human liver microsomes
T6 sequence (P10635 whole entry): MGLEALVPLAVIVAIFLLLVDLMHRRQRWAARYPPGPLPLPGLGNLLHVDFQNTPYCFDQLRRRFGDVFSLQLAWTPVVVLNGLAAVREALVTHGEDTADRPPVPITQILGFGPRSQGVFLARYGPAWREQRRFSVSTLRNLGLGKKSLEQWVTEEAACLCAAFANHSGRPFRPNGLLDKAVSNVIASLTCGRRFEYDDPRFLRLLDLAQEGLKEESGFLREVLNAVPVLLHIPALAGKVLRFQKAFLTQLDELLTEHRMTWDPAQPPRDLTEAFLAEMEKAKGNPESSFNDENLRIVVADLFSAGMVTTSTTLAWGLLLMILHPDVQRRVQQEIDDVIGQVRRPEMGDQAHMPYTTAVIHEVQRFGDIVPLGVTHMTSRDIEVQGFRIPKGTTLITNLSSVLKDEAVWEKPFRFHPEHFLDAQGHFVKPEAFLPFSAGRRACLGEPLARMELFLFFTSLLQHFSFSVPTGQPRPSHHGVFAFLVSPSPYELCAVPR
The data set is described as follows: CYP inhibition assay, CYP2D6. The data set is classed as in vitro ADME. To be noted: pooled human liver microsomes, dextromethorphan substrate; read-out: CYP IC50 2D6. The protocol: as §1

T3 sequence (P56817 46-501): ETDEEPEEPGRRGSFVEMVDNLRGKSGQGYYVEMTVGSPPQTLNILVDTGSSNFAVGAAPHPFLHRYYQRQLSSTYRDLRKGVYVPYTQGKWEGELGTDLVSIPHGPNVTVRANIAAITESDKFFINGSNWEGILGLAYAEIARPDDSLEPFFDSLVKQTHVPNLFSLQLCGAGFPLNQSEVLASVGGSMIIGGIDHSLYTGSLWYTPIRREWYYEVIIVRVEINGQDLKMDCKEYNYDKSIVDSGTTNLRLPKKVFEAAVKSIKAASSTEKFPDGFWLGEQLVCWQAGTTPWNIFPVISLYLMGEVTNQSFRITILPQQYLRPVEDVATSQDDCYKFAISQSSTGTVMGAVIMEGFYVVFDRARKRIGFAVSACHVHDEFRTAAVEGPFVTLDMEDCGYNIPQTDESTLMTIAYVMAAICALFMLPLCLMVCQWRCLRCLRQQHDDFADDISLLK
T2 sequence (P08183 whole entry): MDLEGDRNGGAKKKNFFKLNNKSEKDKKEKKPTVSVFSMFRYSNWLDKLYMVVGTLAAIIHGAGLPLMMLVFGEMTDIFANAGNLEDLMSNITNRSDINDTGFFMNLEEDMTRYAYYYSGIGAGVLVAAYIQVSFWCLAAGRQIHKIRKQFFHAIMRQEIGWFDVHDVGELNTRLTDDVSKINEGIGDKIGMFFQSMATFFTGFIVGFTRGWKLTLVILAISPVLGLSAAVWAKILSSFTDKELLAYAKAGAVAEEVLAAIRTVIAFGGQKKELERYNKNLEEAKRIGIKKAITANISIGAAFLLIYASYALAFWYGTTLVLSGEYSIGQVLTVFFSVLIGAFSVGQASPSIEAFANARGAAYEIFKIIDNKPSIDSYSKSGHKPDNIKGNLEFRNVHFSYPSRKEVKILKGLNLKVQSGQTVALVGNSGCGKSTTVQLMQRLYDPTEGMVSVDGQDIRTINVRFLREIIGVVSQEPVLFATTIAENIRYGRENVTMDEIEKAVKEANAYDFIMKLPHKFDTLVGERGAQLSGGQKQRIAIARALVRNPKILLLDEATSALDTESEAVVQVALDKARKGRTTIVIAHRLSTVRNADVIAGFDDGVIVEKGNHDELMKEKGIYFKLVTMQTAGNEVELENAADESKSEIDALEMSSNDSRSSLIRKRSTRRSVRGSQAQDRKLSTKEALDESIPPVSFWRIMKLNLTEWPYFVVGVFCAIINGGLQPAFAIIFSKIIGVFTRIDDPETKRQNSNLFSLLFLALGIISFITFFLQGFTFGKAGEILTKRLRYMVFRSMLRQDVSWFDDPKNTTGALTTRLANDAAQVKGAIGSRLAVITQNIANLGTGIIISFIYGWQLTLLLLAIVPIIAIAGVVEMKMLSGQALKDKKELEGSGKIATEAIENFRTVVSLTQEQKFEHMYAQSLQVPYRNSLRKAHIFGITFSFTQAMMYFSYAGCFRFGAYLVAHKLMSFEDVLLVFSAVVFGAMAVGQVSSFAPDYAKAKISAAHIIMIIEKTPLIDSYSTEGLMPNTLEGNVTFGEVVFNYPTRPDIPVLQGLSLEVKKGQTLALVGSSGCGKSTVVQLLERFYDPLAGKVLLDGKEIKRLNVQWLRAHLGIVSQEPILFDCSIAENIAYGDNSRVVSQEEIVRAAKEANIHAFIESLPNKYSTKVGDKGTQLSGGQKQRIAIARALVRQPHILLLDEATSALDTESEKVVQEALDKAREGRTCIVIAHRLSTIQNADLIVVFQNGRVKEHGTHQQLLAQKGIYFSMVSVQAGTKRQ
T1 sequence (P11712 whole entry): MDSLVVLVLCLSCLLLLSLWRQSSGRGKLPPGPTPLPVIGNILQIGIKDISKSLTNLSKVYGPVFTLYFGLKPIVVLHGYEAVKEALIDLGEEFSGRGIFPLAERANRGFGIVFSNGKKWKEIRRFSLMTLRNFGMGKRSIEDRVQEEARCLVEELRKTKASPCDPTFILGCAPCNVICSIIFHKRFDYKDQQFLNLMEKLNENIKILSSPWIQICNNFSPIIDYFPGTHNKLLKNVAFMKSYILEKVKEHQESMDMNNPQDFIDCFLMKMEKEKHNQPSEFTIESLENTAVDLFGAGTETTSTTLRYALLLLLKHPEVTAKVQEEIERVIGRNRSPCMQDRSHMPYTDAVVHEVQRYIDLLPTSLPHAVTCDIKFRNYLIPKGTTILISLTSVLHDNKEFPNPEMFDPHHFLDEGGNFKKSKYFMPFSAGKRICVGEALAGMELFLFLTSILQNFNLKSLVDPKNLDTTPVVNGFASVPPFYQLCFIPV
T5 sequence (P08684 whole entry): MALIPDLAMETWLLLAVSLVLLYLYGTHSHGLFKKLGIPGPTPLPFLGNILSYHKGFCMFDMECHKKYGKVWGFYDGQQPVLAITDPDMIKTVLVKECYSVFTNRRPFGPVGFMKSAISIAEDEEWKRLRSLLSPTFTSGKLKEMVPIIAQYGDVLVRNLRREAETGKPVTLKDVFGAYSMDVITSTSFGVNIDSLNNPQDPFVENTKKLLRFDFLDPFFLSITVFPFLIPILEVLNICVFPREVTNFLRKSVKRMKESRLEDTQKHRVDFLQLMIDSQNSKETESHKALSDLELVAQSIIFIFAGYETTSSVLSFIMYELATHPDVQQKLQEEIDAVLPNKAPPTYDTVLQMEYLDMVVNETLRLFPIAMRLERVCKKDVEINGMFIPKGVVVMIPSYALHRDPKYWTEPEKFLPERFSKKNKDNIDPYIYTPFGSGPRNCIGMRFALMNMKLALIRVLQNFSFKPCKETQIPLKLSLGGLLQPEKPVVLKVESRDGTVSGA

With `C[C@@]1(c2cc(NC(=O)c3ccc(Cl)cn3)ccc2F)C[C@@H](C(F)(F)F)OC(N)=N1` [Example 2, N-(3-((4S,6S)-2-amino-4-methyl-6-(trifluoromethyl)-5,6-dihydro-4H-1,3-oxazin-4-yl)-4-fluorophenyl)-5-chloropicolinamide], the IC50 on CYP2C9 was above 50 µM; at BACE1, 0.005 µM; in data set [2], above 200 µM; on CYP3A4, above 50 µM; at CYP2D6, 3.9 µM. For the same molecule, on P-gp (human MDR1), the efflux ratio at 2 h was found to be 1.82. The “GSH human (glutathione adduct formation)” value in data set [1] is “NF”. The “hERG Inhibition @ 10 μM” value on hERG is 84.
In the case of `C[C@@]1(c2cc(NC(=O)c3ccc(OCF)cn3)ccc2F)C[C@@H](C(F)(F)F)OC(N)=N1` [Example 11, N-(3-((4S,6S)-2-Amino-4-methyl-6-(trifluoromethyl)-5,6-dihydro-4H-1,3-oxazin-4-yl)-4-fluorophenyl)-5-(fluoromethoxy)picolinamide], the concentration for half-maximal inhibition (IC50) at CYP2C9 is above 50 µM; at BACE1, 0.004 µM; in data set [2], above 200 µM; at CYP3A4 it was above 50 µM; at CYP2D6 it was 1.6 µM. Further, the efflux ratio at 2 h at P-gp (human MDR1) is 2.3. Besides, in data set [1], the “GSH human (glutathione adduct formation)” value is given as “NF”. Further, the “hERG Inhibition @ 10 μM” value at hERG was found to be 26.
With `CC#CCOc1cnc(C(=O)Nc2ccc(F)c([C@]3(C)C[C@@H](C(F)(F)F)OC(N)=N3)c2)cn1` [Example 22, N-(3-((4S,6S)-2-Amino-4-methyl-6-(trifluoromethyl)-5,6-dihydro-4H-1,3-oxazin-4-yl)-4-fluorophenyl)-5-(but-2-ynyloxy)pyrazine-2-carboxamide], the IC50 was 33 µM on CYP2C9; 0.0002 µM on BACE1; 179 µM in data set [2]; above 50 µM at CYP3A4; 13 µM at CYP2D6. Also, at P-gp (human MDR1), the efflux ratio at 2 h is 2.63. In data set [1], the “GSH human (glutathione adduct formation)” value was “NF”.
With `NC1=N[C@](CF)(c2cc(NC(=O)c3ccc(OCF)cn3)ccc2F)C[C@@H](C(F)(F)F)O1` [Example 35, N-(3-((4S,6S)-2-Amino-4-(fluoromethyl)-6-(trifluoromethyl)-5,6-dihydro-4H-1,3-oxazin-4-yl)-4-fluorophenyl)-5-(fluoromethoxy)picolinamide], the IC50 on CYP2C9 was 33 µM; on BACE1, 0.019 µM; in data set [2] it was above 200 µM; on CYP3A4 it was above 50 µM; on CYP2D6, 5.2 µM. Also, at P-gp (human MDR1), the efflux ratio at 2 h worked out at 1.5. Besides, the “GSH human (glutathione adduct formation)” value in data set [1] is “NF”. On hERG, the “hERG Inhibition @ 10 μM” value came out at 26.
